The values below come from PubChem BioAssay AID588650 (The Scripps Research Institute Molecular Screening Center, 2011).

The structures appear in SMILES notation.

For the assay, the target named is Epidermal growth factor receptor (Homo sapiens) (UniProt P00533). Kind of assay: phospho-EGFR protein level reduction, late-stage follow-up, counter-screen for KLF5 inhibitor project, HCT116 cells, chemiluminescent western blot, powder samples (AID 588650). As to conditions: 24 h, at 10 µM, hits give high values. (In general: The purpose of a counterscreen is to sort out artefacts and off-target activity.)
Chain of Epidermal growth factor receptor (Homo sapiens) (P00533 whole entry, looked up): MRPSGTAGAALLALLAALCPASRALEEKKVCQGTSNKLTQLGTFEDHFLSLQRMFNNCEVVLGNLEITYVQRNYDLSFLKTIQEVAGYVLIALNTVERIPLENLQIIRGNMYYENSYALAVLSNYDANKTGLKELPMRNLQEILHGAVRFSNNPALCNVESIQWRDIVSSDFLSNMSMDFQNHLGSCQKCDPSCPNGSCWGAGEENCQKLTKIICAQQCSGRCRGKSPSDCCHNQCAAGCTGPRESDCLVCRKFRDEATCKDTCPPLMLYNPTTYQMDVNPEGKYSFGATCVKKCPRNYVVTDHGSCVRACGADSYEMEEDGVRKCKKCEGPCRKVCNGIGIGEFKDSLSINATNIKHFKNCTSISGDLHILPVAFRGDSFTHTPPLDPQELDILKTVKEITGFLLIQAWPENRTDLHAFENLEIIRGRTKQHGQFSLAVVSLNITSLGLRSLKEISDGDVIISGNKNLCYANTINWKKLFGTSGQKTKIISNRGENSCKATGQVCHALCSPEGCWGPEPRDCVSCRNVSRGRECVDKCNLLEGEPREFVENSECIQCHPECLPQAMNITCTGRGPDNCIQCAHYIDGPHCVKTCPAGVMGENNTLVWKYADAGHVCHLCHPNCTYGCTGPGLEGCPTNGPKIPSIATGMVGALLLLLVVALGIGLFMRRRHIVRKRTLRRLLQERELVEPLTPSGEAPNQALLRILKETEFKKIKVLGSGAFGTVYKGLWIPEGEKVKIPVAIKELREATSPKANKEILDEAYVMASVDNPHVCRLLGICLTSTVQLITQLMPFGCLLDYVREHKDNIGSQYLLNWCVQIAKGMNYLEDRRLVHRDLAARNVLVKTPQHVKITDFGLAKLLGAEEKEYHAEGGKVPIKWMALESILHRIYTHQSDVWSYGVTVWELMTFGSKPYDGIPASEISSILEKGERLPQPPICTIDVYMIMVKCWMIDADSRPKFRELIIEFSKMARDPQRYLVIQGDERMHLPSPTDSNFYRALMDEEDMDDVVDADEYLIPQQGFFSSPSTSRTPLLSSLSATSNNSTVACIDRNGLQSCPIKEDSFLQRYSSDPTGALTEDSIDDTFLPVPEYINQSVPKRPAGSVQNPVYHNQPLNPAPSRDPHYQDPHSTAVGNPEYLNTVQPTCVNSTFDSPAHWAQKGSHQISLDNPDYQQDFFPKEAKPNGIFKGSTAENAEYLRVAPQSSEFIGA
Usually inhibition stands for the drop in the measured response relative to a control, in per cent. On to `CN(C(=O)COC(=O)/C=C/c1cccc([N+](=O)[O-])c1)C1CCS(=O)(=O)C1` (stereo not drawn), for which the inhibition is -64.9%.

Regarding `CN(C(=O)CNC(=O)/C=C/c1cccc(Cl)c1)C1CCS(=O)(=O)CC1`, the inhibition is -254%.

On to `CN(C(=O)CNC(=O)/C=C/c1cccc(Cl)c1)C1CCS(=O)(=O)C1` (stereo not drawn), for which the inhibition was -53.2%.
